# Test results published in ChEMBL document CHEMBL1201862, “PubChem BioAssay data set” (2004).
# The source made the active and inactive calls.
# Key:
# Assay type in all cases: functional
# [1] = biological target: Tyrosine-protein kinase ABL1 (Homo sapiens, UniProt P00519)
# Focal adhesion kinase 1 = Focal adhesion kinase 1 (Homo sapiens, UniProt Q05397);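 note: measured as one member of a kinome panel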
# [2] = biological target: Dual specificity tyrosine-phosphorylation-regulated kinase 3 (Homo sapiens, UniProt O43781);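 note: measured as one member of a broad kinase panel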
# [3] = biological target: Serine/threonine-protein kinase N2 (Homo sapiens, UniProt Q16513)
# [4] = biological target: Serine/threonine-protein kinase PLK3 (Homo sapiens, UniProt Q9H4B4)
# [5] = biological target: Cell division cycle 7-related protein kinase (Homo sapiens, UniProt O00311);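 note: value obtained from a kinome-wide kinase panel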
# [6] = biological target: cAMP-dependent protein kinase catalytic subunit alpha (Homo sapiens, UniProt P17612)
# [7] = biological target: MAP/microtubule affinity-regulating kinase 3 (Homo sapiens, UniProt P27448);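 note: MARK3 affinity measured as one member of a kinome panel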
# [8] = biological target: Cyclin-dependent kinase 5 (Homo sapiens, UniProt Q00535);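 note: CDK5 measured as one member of a kinase profiling panel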
# [9] = biological target: Tyrosine-protein kinase FRK (Homo sapiens, UniProt P42685);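 note: FRK tested as one member of a kinome panel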
# [10] = biological target: Macrophage colony-stimulating factor 1 receptor (Homo sapiens, UniProt P07333);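 note: value comes from the Navigating the Kinome screening panel, CSF1R member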
# [11] = biological target: Maternal embryonic leucine zipper kinase (Homo sapiens, UniProt Q14680)
# [12] = biological target: RAC-gamma serine/threonine-protein kinase (Homo sapiens, UniProt Q9Y243)
# [13] = biological target: Serine/threonine-protein kinase Chk2 (Homo sapiens, UniProt O96017);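 note: CHEK2 entry within a kinome-wide screening panel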
# [14] = biological target: Mitogen-activated protein kinase 12 (Homo sapiens, UniProt P53778);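 note: measured as one member of a kinome-wide kinase profiling panel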
# [15] = biological target: Tyrosine-protein kinase JAK2 (Homo sapiens, UniProt O60674);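 note: JAK2 tested as one member of a kinase panel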
# [16] = biological target: Mitogen-activated protein kinase kinase kinase kinase 5 (Homo sapiens, UniProt Q9Y4K4);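 note: measured as one member of a kinome-spanning kinase panel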
# [17] = biological target: Serine/threonine-protein kinase pim-3 (Homo sapiens, UniProt Q86V86);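 note: value obtained as one member of a broad kinase panel profiling effort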
# [18] = biological target: Receptor tyrosine-protein kinase erbB-4 (Homo sapiens, UniProt Q15303);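 note: ERBB4 member of a kinome-wide kinase profiling panel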
# LIM domain kinase 1 = LIM domain kinase 1 (Homo sapiens, UniProt P53667); assay: Navigating the Kinome. Panel member name: LIMK1
# [19] = biological target: Tyrosine-protein kinase SYK (Homo sapiens, UniProt P43405)
# [20] = biological target: Serine/threonine-protein kinase DCLK1 (Homo sapiens, UniProt O15075);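 note: affinity for DCLK1 (listed as DCAMKL1) measured as one member of a kinome-wide kinase profiling panel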
# [21] = biological target: Protein kinase C gamma type (Homo sapiens, UniProt P05129)
# [22] = biological target: Casein kinase I isoform delta (Homo sapiens, UniProt P48730);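 note: measured as one member (CSNK1D) of a kinome panel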
# [23] = biological target: Calcium/calmodulin-dependent protein kinase type II subunit gamma (Homo sapiens, UniProt Q13555)
# [24] = biological target: Fibroblast growth factor receptor 3 (Homo sapiens, UniProt P22607)
# [25] = biological target: Tyrosine-protein kinase ITK/TSK (Homo sapiens, UniProt Q08881);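 note: affinity for ITK measured as one member of a broad kinase panel profiling binding across the kinome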
# [26] = biological target: Mitogen-activated protein kinase kinase kinase 20 (Homo sapiens, UniProt Q9NYL2)
# [27] = biological target: Serine/threonine-protein kinase PAK 1 (Homo sapiens, UniProt Q13153)
# [28] = biological target: Receptor-type tyrosine-protein kinase FLT3 (Homo sapiens, UniProt P36888);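 note: FLT3 was tested as one member of a kinome-wide kinase panel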
# [29] = biological target: Tyrosine-protein kinase JAK3 (Homo sapiens, UniProt P52333)
# [30] = biological target: Death-associated protein kinase 3 (Homo sapiens, UniProt O43293);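 note: measured as one member of a kinome-wide profiling panel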
# [31] = biological target: Interleukin-1 receptor-associated kinase 4 (Homo sapiens, UniProt Q9NWZ3)
# [32] = biological target: Glycogen synthase kinase-3 alpha (Homo sapiens, UniProt P49840);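 note: GSK3A result taken from a broad kinome-wide kinase panel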
# [33] = biological target: Serine/threonine-protein kinase PLK1 (Homo sapiens, UniProt P53350);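 note: PLK1 measured as one member of a kinome-wide profiling panel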
# [34] = biological target: Testis-specific serine/threonine-protein kinase 1 (Homo sapiens, UniProt Q9BXA7)
# [35] = biological target: Vascular endothelial growth factor receptor 1 (Homo sapiens, UniProt P17948);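 note: measured within a kinome-wide profiling panel, FLT1 as the panel member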
# [36] = biological target: MAP kinase-activated protein kinase 3 (Homo sapiens, UniProt Q16644);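 note: value comes from a kinome-wide profiling panel in which MAPKAPK3 is one of the panel members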
# [37] = biological target: Tyrosine-protein kinase Srms (Homo sapiens, UniProt Q9H3Y6);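 note: SRMS measured as one member of a kinome-wide kinase profiling panel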
# [38] = biological target: Serine/threonine-protein kinase 17A (Homo sapiens, UniProt Q9UEE5)
# [39] = biological target: Tyrosine-protein kinase BTK (Homo sapiens, UniProt Q06187)
# [40] = biological target: Dual specificity tyrosine-phosphorylation-regulated kinase 1A (Homo sapiens, UniProt Q13627);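 note: measured against DYRK1A as one member of a broad kinome profiling panel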
# [41] = biological target: 3-phosphoinositide-dependent protein kinase 1 (Homo sapiens, UniProt O15530);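 note: value comes from the Navigating the Kinome panel, PDPK1 member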
# [42] = biological target: Tyrosine-protein kinase Fyn (Homo sapiens, UniProt P06241)
# [43] = biological target: Rho-associated protein kinase 1 (Homo sapiens, UniProt Q13464);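 note: measured within a broad kinome-wide panel profiling many kinases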
# [44] = biological target: Receptor tyrosine-protein kinase erbB-2 (Homo sapiens, UniProt P04626); assay: Navigating the Kinome. Panel member name: ERBB2
# [45] = biological target: Phosphorylase b kinase gamma catalytic chain, liver/testis isoform (Homo sapiens, UniProt P15735);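 note: PHKG2 measured as one member of a kinome-wide kinase panel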
# Chain of Testis-specific serine/threonine-protein kinase 1 (Q9BXA7 whole entry): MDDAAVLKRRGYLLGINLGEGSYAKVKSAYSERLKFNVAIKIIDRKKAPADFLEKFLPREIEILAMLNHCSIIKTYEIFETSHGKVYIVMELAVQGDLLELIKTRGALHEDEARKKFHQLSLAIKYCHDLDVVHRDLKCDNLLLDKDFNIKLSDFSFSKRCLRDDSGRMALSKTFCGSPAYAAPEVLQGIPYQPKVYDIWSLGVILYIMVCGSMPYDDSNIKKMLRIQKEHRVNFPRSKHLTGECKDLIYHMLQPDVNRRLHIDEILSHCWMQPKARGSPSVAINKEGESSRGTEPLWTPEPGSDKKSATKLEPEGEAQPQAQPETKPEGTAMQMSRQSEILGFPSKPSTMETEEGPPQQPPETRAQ
# Chain of MAP/microtubule affinity-regulating kinase 3 (P27448 whole entry): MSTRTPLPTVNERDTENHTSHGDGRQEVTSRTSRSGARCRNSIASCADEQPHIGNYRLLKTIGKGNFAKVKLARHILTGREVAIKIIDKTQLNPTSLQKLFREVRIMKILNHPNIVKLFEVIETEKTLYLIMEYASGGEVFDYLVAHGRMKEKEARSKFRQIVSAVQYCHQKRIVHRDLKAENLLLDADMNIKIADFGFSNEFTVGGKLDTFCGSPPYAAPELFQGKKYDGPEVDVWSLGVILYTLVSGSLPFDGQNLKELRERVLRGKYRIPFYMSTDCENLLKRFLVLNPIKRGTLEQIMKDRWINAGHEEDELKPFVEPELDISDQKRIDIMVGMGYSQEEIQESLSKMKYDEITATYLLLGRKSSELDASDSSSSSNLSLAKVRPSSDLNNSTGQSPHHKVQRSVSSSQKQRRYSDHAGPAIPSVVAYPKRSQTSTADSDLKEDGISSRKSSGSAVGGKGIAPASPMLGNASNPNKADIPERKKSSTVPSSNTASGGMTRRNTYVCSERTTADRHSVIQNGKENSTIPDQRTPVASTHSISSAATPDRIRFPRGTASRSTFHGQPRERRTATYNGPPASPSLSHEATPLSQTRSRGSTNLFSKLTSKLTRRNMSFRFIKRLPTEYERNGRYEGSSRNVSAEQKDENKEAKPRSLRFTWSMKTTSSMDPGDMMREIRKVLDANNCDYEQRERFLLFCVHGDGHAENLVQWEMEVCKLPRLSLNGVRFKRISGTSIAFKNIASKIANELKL
# Chain of Macrophage colony-stimulating factor 1 receptor (P07333 whole entry): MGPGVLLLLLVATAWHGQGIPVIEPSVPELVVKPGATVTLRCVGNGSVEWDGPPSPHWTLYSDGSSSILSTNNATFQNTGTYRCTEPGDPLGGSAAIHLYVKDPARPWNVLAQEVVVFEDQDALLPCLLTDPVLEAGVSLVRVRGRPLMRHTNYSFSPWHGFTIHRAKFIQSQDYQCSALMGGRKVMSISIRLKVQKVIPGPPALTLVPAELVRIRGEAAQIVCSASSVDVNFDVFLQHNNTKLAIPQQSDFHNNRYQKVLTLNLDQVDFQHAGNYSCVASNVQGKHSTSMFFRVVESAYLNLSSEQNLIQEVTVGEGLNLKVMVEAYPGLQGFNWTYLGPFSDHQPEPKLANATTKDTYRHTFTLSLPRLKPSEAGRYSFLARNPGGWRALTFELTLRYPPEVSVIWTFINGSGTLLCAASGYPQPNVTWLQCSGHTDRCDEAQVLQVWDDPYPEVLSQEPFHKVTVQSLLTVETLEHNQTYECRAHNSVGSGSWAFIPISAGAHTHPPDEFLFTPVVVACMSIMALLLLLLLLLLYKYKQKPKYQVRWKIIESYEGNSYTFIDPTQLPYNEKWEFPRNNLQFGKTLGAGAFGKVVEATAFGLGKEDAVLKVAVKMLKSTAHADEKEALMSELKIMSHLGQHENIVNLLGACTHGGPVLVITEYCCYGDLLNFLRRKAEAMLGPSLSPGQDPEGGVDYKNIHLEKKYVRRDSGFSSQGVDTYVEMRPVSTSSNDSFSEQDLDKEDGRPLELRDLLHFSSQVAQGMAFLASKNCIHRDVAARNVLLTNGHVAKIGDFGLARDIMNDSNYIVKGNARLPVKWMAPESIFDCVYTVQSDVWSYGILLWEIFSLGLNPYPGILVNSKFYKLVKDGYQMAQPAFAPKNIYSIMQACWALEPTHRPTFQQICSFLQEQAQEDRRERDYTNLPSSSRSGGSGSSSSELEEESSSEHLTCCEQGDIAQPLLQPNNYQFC
# Chain of Casein kinase I isoform delta (P48730 whole entry, canonical isoform): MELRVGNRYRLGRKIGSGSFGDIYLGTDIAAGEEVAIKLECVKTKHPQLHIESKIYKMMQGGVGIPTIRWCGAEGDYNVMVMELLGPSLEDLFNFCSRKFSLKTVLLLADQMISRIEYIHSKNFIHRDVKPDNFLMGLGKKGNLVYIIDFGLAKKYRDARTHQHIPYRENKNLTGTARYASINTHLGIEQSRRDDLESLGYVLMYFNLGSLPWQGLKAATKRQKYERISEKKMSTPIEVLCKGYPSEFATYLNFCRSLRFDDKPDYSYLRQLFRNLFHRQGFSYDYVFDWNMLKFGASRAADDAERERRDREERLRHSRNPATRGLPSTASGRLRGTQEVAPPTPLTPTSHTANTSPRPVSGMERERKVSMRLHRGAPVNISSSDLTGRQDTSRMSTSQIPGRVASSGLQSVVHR
# Chain of Tyrosine-protein kinase Srms (Q9H3Y6 whole entry): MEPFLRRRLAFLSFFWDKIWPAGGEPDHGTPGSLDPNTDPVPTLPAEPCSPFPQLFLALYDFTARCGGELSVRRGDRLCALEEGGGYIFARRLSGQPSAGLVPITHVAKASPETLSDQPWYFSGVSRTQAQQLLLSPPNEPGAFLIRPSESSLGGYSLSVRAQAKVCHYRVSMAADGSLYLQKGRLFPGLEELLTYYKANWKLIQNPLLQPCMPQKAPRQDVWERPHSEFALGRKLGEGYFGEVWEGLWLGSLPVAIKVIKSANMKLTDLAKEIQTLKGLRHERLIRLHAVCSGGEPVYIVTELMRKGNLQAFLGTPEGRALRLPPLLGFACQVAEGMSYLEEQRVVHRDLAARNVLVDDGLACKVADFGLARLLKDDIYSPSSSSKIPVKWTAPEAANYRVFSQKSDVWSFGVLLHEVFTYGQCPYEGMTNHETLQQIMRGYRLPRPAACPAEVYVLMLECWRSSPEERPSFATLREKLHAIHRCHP
# Chain of Serine/threonine-protein kinase 17A (Q9UEE5 whole entry): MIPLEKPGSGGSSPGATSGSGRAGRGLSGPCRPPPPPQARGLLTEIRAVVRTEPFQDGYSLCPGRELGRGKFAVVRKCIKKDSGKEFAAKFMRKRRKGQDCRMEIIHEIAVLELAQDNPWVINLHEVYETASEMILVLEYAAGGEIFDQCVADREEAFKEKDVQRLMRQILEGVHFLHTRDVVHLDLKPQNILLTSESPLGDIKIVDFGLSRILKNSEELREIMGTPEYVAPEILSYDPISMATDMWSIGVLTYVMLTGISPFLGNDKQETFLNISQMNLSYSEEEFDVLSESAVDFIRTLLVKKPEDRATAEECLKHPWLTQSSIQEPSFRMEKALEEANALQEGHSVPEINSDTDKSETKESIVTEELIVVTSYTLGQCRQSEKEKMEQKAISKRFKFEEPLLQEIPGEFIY
# Chain of Serine/threonine-protein kinase N2 (Q16513 whole entry): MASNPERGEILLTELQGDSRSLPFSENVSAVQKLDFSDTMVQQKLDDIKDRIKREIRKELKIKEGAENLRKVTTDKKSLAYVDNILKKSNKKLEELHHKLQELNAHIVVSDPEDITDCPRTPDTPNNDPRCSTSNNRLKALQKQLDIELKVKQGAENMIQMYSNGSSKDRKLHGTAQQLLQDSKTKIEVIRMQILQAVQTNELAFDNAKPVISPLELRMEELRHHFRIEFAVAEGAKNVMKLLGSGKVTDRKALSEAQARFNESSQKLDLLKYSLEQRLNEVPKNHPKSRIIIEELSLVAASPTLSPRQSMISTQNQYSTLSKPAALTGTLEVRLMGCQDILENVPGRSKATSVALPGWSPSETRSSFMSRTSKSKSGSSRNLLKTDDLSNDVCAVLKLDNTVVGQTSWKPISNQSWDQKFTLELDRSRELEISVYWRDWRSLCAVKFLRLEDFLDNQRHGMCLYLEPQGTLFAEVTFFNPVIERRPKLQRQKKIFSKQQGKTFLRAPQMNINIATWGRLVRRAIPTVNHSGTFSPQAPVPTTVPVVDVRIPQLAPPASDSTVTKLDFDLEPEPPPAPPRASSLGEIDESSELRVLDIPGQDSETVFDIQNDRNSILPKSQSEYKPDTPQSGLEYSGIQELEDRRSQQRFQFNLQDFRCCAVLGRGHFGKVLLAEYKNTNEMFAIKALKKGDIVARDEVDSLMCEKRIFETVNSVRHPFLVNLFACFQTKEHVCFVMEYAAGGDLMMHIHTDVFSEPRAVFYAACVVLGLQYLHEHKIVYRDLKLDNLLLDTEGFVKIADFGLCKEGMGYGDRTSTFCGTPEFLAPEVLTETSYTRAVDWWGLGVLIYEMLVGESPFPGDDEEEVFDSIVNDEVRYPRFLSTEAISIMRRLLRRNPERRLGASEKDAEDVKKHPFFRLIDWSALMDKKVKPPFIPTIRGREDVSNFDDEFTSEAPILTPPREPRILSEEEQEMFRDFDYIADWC
# Chain of MAP kinase-activated protein kinase 3 (Q16644 whole entry): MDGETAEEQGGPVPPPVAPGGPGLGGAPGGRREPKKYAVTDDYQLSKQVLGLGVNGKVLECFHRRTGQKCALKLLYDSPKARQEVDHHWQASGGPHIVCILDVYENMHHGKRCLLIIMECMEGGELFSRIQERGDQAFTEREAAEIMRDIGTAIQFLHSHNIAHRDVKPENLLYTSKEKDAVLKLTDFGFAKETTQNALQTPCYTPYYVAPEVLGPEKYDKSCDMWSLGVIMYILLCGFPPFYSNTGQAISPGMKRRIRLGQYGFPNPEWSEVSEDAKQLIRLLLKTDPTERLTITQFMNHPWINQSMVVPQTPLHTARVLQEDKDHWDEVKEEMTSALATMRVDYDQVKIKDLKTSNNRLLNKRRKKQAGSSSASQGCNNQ
smiles,measurement,setting,value
NC(=O)Cn1cc(-c2cc(-c3cc4ccccc4s3)c3[nH]ncc3c2)c2nc(N)ncc21,Ki,[1],> 631 nM (inactive)
same,Ki,Focal adhesion kinase 1,> 1580 nM (inactive)
same,Ki,[2],631 nM (active)
same,Ki,[3],79.4 nM (active)
same,Ki,[4],> 7940 nM (inactive)
same,Ki,[5],126 nM (active)
same,Ki,[6],631 nM (active)
same,Ki,[7],398 nM (active)
same,Ki,[8],794 nM (active)
same,Ki,[9],> 2510 nM (inactive)
same,Ki,[10],> 2510 nM (inactive)
same,Ki,[11],> 1580 nM (inactive)
same,Ki,[12],> 10000 nM (inactive)
same,Ki,[13],39.8 nM (active)
same,Ki,[14],5010 nM (active)
same,Ki,[15],> 1580 nM (inactive)
same,Ki,[16],631 nM (active)
same,Ki,[17],3160 nM (active)
same,Ki,[18],> 3980 nM (inactive)
same,Ki,LIM domain kinase 1,3980 nM (active)
same,Ki,[19],200 nM (active)
same,Ki,[20],> 10000 nM (inactive)
same,Ki,[21],1580 nM (active)
same,Ki,[22],3160 nM (active)
same,Ki,[23],6310 nM (active)
same,Ki,[24],> 2000 nM (inactive)
same,Ki,[25],> 1580 nM (inactive)
same,Ki,[26],> 7940 nM (inactive)
same,Ki,[27],3980 nM (active)
same,Ki,[28],1260 nM (active)
same,Ki,[29],> 1580 nM (inactive)
same,Ki,[30],1000 nM (active)
same,Ki,[31],> 10000 nM (inactive)
same,Ki,[32],50.1 nM (active)
same,Ki,[33],> 7940 nM (inactive)
same,Ki,[34],> 1580 nM (inactive)
same,Ki,[35],> 398 nM (inactive)
same,Ki,[36],10000 nM (active)
same,Ki,[37],> 1580 nM (inactive)
same,Ki,[38],251 nM (active)
same,Ki,[39],> 1260 nM (inactive)
same,Ki,[40],100 nM (active)
same,Ki,[41],7.94 nM (active)
same,Ki,[42],> 794 nM (inactive)
same,Ki,[43],1580 nM (active)
same,Ki,[44],1000 nM (active)
same,Ki,[45],3160 nM (active)
